Data: patent US20160279252A1, “COMPOSITIONS FOR INDUCING IMMUNE TOLERANCE TO COAGULATION FACTOR PROTEINS” (BAYER HEALTHCARE LLC, priority 2013, published 2016)

Key:
C57BL/6J mice = assay: Tolerization of C57BL/6J mice to HEL (anti-HEL titers); assay type: in vivo, mouse; conditions: for effect of ligand amount on liposomes on antibody production: HEL liposomes with varying ligand, day 44 after two challenges
Procedure: Immunization and Blood Collection: Whole blood (50 μL) was collected from mice via a retro-orbital bleed using heparinized capillary tubes (Fisher). Blood was centrifuged (17,000 rcf, 1 min) to collect the serum. Serum was either used immediately for ELISAs or stored at −20° C. […] Liposomes and cells were delivered via the lateral tail vein in a volume of 200 μL. For studies involving a challenge with soluble (non-liposomal) antigen, mice were injected with 200 μg of HEL dissolved in HBSS and delivered intraperitoneally or 1 μg of FVIII delivered intravenously.
ELISAs: Maxisorp plates (96-well; Thermo Fisher) were coated with 50 μL/well of the relevant protein at a concentration of between 10-100 μg/mL in PBS and left overnight at 4° C. […] The following day, the plates were washed twice in TBS-T (Tris-buffered saline blocked containing 0.1% Tween 20) and blocked for 1 hr at RT with 100 μL of assay diluent (TBS-T with 1% BSA). Washing of the plates was accomplished by submerging the entire plate into a basin of wash buffer the appropriate number of times. Serum was initially diluted between 20-10,000-fold and diluted in 2-3 fold serial dilutions eight times on the ELISA plate. Plates were incubated with serum (50 μL/well) for 1 hr at 37° C. after which the plates were washed four times in TBS-T. HRP-conjugated secondary antibodies (Santa Cruz Biotechnologies) were diluted 2000-fold in assay diluent and 50 μL was added to each well. After incubation for 1 hr at 37° C., the plates were washed five times in TBS-T. To develop the plate, 75 μL/well of TMB substrate (Thermo Fisher) was added. The plate was incubated at RT for 15 minutes and then 75 μL/well of 2N H2504 was added to quench the reaction. Plates were read at 450 nm using a spectrophotometer (Molecular Devices). The titer was defined as the endpoint titer, which was the dilution of serum that produced an absorbance 2-fold above background.
Liposomes: All liposomes were composed of a 60:35:5 molar ratio of distearoyl phosphatidylcholine (DSPC; Avanti Polar Lipids), cholesterol (Sigma), and pegylated lipids. […]

murine CD22 = molecular target: T1, murine CD22 (Mus musculus, UniProt P35329); conditions: vs NeuGcα2-6Galβ1-4GlcNAc; cited from earlier work
T1 sequence (P35329 22-868): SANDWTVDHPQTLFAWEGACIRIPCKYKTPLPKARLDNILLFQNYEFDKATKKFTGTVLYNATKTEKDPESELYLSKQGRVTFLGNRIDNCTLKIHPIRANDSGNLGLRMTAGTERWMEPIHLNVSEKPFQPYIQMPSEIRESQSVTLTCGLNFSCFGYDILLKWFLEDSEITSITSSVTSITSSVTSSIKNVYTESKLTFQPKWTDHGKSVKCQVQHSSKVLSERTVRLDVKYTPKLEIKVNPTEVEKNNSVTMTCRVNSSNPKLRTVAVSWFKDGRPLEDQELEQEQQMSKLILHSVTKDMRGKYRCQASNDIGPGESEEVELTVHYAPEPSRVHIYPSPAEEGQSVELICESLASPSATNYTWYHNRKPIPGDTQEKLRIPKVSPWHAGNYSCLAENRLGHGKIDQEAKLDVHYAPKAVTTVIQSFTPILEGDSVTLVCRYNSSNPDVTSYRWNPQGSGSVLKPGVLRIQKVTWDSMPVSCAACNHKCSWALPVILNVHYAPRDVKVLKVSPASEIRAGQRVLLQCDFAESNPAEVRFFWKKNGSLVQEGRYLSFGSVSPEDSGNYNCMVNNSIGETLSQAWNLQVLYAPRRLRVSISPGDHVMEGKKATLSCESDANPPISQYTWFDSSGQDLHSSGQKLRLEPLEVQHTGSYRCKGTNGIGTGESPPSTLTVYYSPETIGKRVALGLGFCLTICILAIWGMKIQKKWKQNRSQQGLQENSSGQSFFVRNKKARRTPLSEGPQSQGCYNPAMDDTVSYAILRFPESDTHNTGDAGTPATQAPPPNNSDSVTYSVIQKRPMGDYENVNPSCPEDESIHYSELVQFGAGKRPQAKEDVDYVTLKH

Siglec-G = molecular target: T2, Siglec-G (Mus musculus, UniProt Q80ZE3); conditions: cited from earlier work
T2 sequence (Q80ZE3 18-688): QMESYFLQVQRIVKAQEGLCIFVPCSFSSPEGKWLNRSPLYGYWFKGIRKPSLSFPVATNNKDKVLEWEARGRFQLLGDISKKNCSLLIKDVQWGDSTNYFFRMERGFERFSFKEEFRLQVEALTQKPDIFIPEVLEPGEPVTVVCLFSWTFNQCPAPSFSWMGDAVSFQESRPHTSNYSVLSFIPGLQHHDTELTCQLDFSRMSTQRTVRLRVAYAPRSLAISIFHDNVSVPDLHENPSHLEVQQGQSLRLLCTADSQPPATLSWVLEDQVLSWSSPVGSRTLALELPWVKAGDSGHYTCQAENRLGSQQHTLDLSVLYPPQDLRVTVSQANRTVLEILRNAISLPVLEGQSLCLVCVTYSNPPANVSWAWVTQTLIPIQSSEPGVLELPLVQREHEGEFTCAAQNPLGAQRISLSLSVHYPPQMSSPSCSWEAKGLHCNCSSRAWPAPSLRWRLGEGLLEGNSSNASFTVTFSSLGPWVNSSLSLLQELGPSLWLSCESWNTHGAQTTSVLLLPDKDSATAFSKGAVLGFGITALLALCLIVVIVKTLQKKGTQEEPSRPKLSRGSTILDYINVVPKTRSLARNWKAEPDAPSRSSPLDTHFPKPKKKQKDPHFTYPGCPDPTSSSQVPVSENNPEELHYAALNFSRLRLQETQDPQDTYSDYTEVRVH

human CD22 = human CD22 (Homo sapiens, UniProt P20273); conditions: cited from earlier work
FVIII deficient plasma = assay: Coagulation assay (one-stage aPTT clotting FVIII:C); assay type: biochemical; conditions: PEGylated with PEGs 6 kD to 64 kD, assayed without purification
Procedure: COAGULATION ASSAY. The clotting FVIII:C test method is a one-stage assay based upon the activated partial thromboplastin time (aPTT). FVIII acts as a cofactor in the presence of Factor IXa, calcium, and phospholipid in the enzymatic conversion of Factor X to Xa. In this assay, the diluted test samples are incubated at 37° C. with a mixture of FVIII deficient plasma substrate and aPTT reagent. Calcium chloride is added to the incubated mixture and clotting is initiated. An inverse relationship exists between the time (seconds) it takes for a clot to form and logarithm of the concentration of FVIII:C. Activity levels for unknown samples are interpolated by comparing the clotting times of various dilutions of test material with a curve constructed from a series of dilutions of standard material of known activity and are reported in International Units per mL (IU/mL).
EFFECT OF PEG SIZE ON ACTIVITY. To test whether PEG sizes have an effect on both coagulation and chromogenic activities of FVIII upon PEGylation, purified full-length FVIII, PEG2, PEG6, and PEG14 were reduced by TCEP followed by reductant removal and reaction with a buffer control or PEGs ranging from 6 kD to 64 kD. The resulting PEGylated FVIII was directly assayed without removal of excess PEG or unPEGylated FVIII.

Sequence of human CD22 (P20273 20-847): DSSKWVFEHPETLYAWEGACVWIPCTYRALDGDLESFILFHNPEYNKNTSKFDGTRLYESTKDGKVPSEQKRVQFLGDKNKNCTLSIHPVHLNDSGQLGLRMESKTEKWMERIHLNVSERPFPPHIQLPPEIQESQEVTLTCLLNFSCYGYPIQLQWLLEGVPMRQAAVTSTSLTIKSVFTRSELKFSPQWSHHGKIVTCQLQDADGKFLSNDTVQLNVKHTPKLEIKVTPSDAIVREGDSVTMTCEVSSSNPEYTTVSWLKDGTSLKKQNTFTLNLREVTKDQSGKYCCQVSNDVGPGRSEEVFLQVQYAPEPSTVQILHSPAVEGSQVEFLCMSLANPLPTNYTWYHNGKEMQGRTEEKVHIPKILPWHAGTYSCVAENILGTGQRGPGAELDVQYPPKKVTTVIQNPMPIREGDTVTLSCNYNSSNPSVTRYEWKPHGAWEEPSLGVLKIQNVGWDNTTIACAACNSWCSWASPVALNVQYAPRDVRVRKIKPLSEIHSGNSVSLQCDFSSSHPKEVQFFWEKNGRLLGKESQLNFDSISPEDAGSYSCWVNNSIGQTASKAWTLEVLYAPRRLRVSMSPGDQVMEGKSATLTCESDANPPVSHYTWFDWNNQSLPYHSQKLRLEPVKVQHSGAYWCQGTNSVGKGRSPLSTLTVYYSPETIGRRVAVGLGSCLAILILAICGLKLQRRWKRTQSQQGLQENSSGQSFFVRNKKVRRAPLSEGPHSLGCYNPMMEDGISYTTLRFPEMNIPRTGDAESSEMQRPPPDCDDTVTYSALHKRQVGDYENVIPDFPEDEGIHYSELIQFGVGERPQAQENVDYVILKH

9-N-biphenylacetyl-NeuGcα2-6Galβ1-4GlcNAc [^BPANeuGc]
effect of ligand amount on liposomes on antibody production (C57BL/6J mice): dose-dependent effect on antibody production
difference in EC50 between the two ligands (C57BL/6J mice; ^BPANeuGc vs NeuGc on tolerogenic HEL liposomes): two orders of magnitude difference
affinity for murine CD22 relative to natural ligand (murine CD22): 200 fold
cross-reactivity with Siglec-G (Siglec-G): only a small degree of cross-reactivity

CC(=O)NC1C(O)OC(CO)C(OC2OC(COC3(C(=O)O)CC(O)C(NC(=O)CO)C(C(O)C(O)CO)O3)C(O)C(O)C2O)C1O (stereo not shown) [NeuGc, NeuGcα2-6Galβ1-4GlcNAc]
effect of ligand amount on liposomes on antibody production (C57BL/6J mice): dose-dependent effect on antibody production

9-N-biphenylcarboxyl-NeuAca2-6Galβ3-4GlcNAc [^BPCNeuAc]
affinity for human CD22 (human CD22): high affinity

PEG6
coagulation activity upon PEGylation (FVIII deficient plasma): dramatic losses of coagulation activity
